From US20100137397A1, “Chemical Compounds” (ASTRAZENECA AB, priority 2005, published 2010)

Assays:
[1] = conscious dogs; cited from earlier work
[2] = test system: hepatocytes; conditions: cited from earlier work
[3] = db/db and ob/ob mice; cited from earlier work
[4] = target: T1, Human recombinant liver glycogen phosphorylase a (hrl GPa) (Homo sapiens, UniProt P06737); experiment: glycogen phosphorylase a multienzyme coupled assay; assay type: biochemical; conditions: hrl GPa 20 nM, 8 mM glucose, pH7.2, 6 hours at 30° C.
T1 sequence (P06737 1-847): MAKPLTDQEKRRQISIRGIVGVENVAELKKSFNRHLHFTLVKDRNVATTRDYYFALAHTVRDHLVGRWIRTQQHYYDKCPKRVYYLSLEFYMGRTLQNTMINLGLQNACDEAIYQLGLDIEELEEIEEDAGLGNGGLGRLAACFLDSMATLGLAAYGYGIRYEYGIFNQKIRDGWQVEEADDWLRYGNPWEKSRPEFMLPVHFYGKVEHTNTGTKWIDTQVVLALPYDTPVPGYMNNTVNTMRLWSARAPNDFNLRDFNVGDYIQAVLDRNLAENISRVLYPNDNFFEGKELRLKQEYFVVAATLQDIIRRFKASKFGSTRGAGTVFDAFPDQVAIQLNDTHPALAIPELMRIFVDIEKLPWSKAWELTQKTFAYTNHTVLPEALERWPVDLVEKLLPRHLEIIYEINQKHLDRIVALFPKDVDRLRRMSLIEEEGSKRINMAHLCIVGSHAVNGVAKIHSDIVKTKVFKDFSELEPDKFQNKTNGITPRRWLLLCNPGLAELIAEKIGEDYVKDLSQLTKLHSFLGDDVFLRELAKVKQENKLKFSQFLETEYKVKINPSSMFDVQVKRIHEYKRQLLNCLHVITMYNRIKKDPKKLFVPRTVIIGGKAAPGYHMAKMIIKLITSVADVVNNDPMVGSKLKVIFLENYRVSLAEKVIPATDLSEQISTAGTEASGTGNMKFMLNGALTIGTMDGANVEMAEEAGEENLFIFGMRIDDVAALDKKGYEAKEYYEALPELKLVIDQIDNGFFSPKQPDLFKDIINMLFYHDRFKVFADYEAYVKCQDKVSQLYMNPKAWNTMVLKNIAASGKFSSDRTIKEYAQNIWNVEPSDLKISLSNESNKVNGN
Protocol: The activity of the compounds is determined by measuring the inhibitory effect of the compounds on glycogen degradation, the production of glucose-1-phosphate from glycogen is monitored by the multienzyme coupled assay, as described in EP 0 846 464 A2, general method of Pesce et al (Pesce, M A, Bodourian, S H, Harris, R C, and Nicholson, J F (1977) Clinical Chemistry 23, […]). The reactions were in 384well microplate format in a volume of 50 μl. The change in fluorescence due to the conversion of the co-factor NAD to NADH is measured at 340 nm excitation, 465 nm emission in a Tecan Ultra Multifunctional Microplate Reader. The reaction is in 50 mM HEPES, 3.5 mM KH2PO4, 2.5 mM MgCl2, 2.5 mM ethylene glycol-bis(b-aminoethyl ether) N,N,N′,N′-tetraacetic acid, 100 mM KCl, 8 mM D-(+)-glucose pH7.2, containing 0.5 mM dithiothreitol, the assay buffer solution. Human recombinant liver glycogen phosphorylase a (hrl GPa) 20 nM is pre-incubated in assay buffer solution with 6.25 mM NAD, 1.25 mg type III glycogen at 1.25 mg m^−1 the reagent buffer, for 30 minutes. […] The non-inhibited activity of GPa is measured in the presence of 10 μl 5% DMSO in assay buffer solution and maximum inhibition measured in the presence of 5 mgs ml^−1 N-ethylmaleimide. […] Relative Fluoresence Units (RFUs) are measured at 340 nm excitation, 465 nm emission. […]
Activity is calculated as follows:—

IC50 [4]	SMILES	hepatic glucose output and arterial plasma glucose following a glucagon challenge [1]	glucagon stimulated glycogenolysis and glucose output in hepatocytes [2]	plasma glucose concentration [3]
	CCN1C(C)=C(C(=O)OC(C)C)C(c2ccccc2Cl)C2=C1COC2=O (stereo not shown) [Bay R 3401]	reduced significantly		
	CN(C)C(=O)[C@H](O)[C@H](Cc1ccccc1)NC(=O)c1cc2cc(Cl)ccc2[nH]1 [CP91149]		reduce	reduced, in a dose related manner
	O=C(N[C@@H](Cc1ccc(F)cc1)C(=O)N1CCC(O)CC1)c1cc2cc(Cl)ccc2[nH]1 [CP320626]		reduce	reduced, in a dose related manner
191 nM	O=C(O)COC[C@@H]1c2ccccc2C[C@H]1NC(=O)c1cc2cc(Cl)sc2[nH]1 [Example 1, [((1R,2R)-2-{[(2-Chloro-6H-thieno[2,3-b]pyrrol-5-yl)carbonyl}amino]-2,3-dihydro-1H-inden-1-yl)methoxy]acetic acid]			
14 nM	O=C(O)C[C@@H]1c2ccccc2C[C@H]1NC(=O)c1cc2sc(Cl)c(Cl)c2[nH]1 [Example 8, ((1R,2R)-2-{[(2,3-Dichloro-4H-thieno[3,2-b]pyrrol-5-yl)carbonyl]amino}-2,3-dihydro-1H-inden-1-yl)acetic acid]			
